Laboratory results published in US20190030036A1, “PHOSPHODIESTERASE INHIBITOR TREATMENT” (Cyrano Therapeutics, Inc., priority 2013, published 2019).
Marks after values point to notes of the source that are not given here.

Tested on: patients with hyposmia
Test: Smell function (DT, RT, ME, H) by forced-choice, three-stimuli, stepwise-staircase technique with four odors; open trial of oral theophylline
Type: in vivo, human
Text: Patients initially reported their sensory dysfunction as either loss of taste (e.g., flavor) and/or smell function. This subjective response was documented by objective psychophysical measurements of olfactory function administered to each patient by use of a forced-choice, three-stimuli, stepwise-staircase technique in a fixed, controlled design (1, 53). Efficacy of this technique and results of testing were previously documented in a double-blind clinical trial (53). Four odors were used; they were pyridine (dead-fish odor), nitrobenzene (bitter-almond odor), thiophene (petroleum-like odor) and amyl acetate (banana-oil odor). Detection thresholds (DT), recognition thresholds (RT) and magnitude estimation (ME) values for each odor were determined as previously described (1, 53). Thresholds were converted into bottle units (BU) as previously described (53) and results reported as M±SEM of correct responses for each odor in each treatment group; ME was reported in % and results calculated to obtain M±SEM for each treatment group for all correct responses using data for the four highest odor concentrations presented (from 10^−2M—an absolute odor concentration).
In addition, each patient graded the hedonic (H) value of each odor presented for these same odor concentrations (from 10^−2M—an absolute odor concentration using a −100−0−+100 scale). […] Results were obtained by calculating the arithmetical sum of each correct recognition response for each odor with respect to its pleasantness, unpleasantness or neutrality. Arithmetic M±SEM were obtained for each treatment group for each odor presented.
After determination of hyposmia, patients were treated in an open label, fixed design, controlled open trial. Patients were given an oral extended release theophylline in divided daily doses taken in the middle of breakfast and lunch. All patients were initially given 200 mg of theophylline; changes in this dose were made based upon subjective responses to therapy. If at a subsequent return visit, patients reported ≥5% subjective improvement in overall smell function, they continued on this same dose of theophylline and were reevaluated after four to six months of continued treatment. Results from any subsequent return from these improved patients were not included in any subsequent data report. All subsequent comparisons between treated and untreated patients were made only between those patients continuing in the study compared to their own measurements obtained in the untreated state. If patients reported <5% subjective improvement, their theophylline dose was increased by 200 mg daily and they were scheduled for retesting at the study site after two to four months at this new dosage. For patients that reported <5% improvement, this sequence continued until patients reached 800 mg of theophylline, at which time the study was considered completed.
Patients returned for reevaluation after two to four months of treatment. Measurements of blood serum theophylline were measured by a fluorescence polarization assay (Abbott, Chicago, Ill.). At this time, subjective changes in smell function were measured independently (compared to patient's memory of previous normal smell function monitored by use of the patients' daily measurements) using the scale from −100−0-+100 previously described. After independently recording their subjective responses, smell function was measured for all four odors with DT, RT, ME and H determined without recourse to prior measurements.
Since data for all measurements from each patient group (local or distant) on each dose level were combined mean and SEM for each measurement (DT, RT, ME, H) of smell function for each treatment group were calculated on this basis. Differences in measurements between before treatment and each treatment level were calculated and significance of differences estimated using Student t tests (values p<0.05 considered significant). […]

[1] = amyl acetate, oral theophylline 200 mg
[2] = amyl acetate, oral theophylline 200 mg daily, all patients (199)
[3] = amyl acetate, oral theophylline 200 mg, Type I hyposmia (57)
[4] = amyl acetate, oral theophylline 200 mg, Type II hyposmia (138)
[5] = amyl acetate, oral theophylline 200 mg, Type III hyposmia (4)
[6] = amyl acetate, oral theophylline 400 mg
[7] = amyl acetate, oral theophylline 400 mg daily, all patients (120)
[8] = amyl acetate, oral theophylline 400 mg, Type I hyposmia (33)
[9] = amyl acetate, oral theophylline 400 mg, Type II hyposmia (85)
[10] = amyl acetate, oral theophylline 400 mg, Type III hyposmia (2)
[11] = amyl acetate, oral theophylline 600 mg daily, all patients (160)
[12] = amyl acetate, oral theophylline 600 mg, Type I hyposmia (51)
[13] = amyl acetate, oral theophylline 600 mg, Type II hyposmia (105)
[14] = amyl acetate, oral theophylline 600 mg, Type III hyposmia (4)
[15] = amyl acetate, oral theophylline 800 mg daily, all patients (28)
[16] = amyl acetate, oral theophylline 800 mg, Type I hyposmia (12)
[17] = amyl acetate, oral theophylline 800 mg, Type II hyposmia (16)
[18] = nitrobenzene, oral theophylline 200 mg
[19] = nitrobenzene, oral theophylline 200 mg daily, all patients (199)
[20] = nitrobenzene, oral theophylline 200 mg, Type I hyposmia (57)
[21] = nitrobenzene, oral theophylline 200 mg, Type II hyposmia (138)
[22] = nitrobenzene, oral theophylline 200 mg, Type III hyposmia (4)
[23] = nitrobenzene, oral theophylline 400 mg
[24] = nitrobenzene, oral theophylline 400 mg daily, all patients (120)
[25] = nitrobenzene, oral theophylline 400 mg, Type I hyposmia (33)
[26] = nitrobenzene, oral theophylline 400 mg, Type II hyposmia (85)
[27] = nitrobenzene, oral theophylline 400 mg, Type III hyposmia (2)
[28] = nitrobenzene, oral theophylline 600 mg daily, all patients (160)
[29] = nitrobenzene, oral theophylline 600 mg, Type I hyposmia (51)
[30] = nitrobenzene, oral theophylline 600 mg, Type II hyposmia (105)
[31] = nitrobenzene, oral theophylline 600 mg, Type III hyposmia (4)
[32] = nitrobenzene, oral theophylline 800 mg daily, all patients (28)
[33] = nitrobenzene, oral theophylline 800 mg, Type I hyposmia (12)
[34] = nitrobenzene, oral theophylline 800 mg, Type II hyposmia (16)

Cn1c(=O)c2[nH]cnc2n(C)c1=O [theophylline]
increase of H values (more pleasant) [1]: 2%
increase of ME values [1]: 5%
DT, detection threshold [2]: 7.9 ± 0.2^c BU
H, hedonic estimation [2]: 3 ± 1%
ME, magnitude estimation [2]: 15 ± 2^d %
RT, recognition threshold [2]: 9.9 ± 0.2^c BU
DT, detection threshold [3]: 10.5 ± 0.3^d BU
H, hedonic value [3]: 4 ± 2^a %
ME, magnitude estimation [3]: 6 ± 2^a %
RT, recognition threshold [3]: 11.3 ± 0.2^ BU
DT, detection threshold [4]: 7.0 ± 0.3^ BU
H, hedonic value [4]: 3 ± 2^ %
ME, magnitude estimation [4]: 19 ± 2^ %
RT, recognition threshold [4]: 9.3 ± 0.2^ BU
DT, detection threshold [5]: 2.8 ± 0.5 BU
H, hedonic value [5]: 14 ± 13%
ME, magnitude estimation [5]: 32 ± 10%
RT, recognition threshold [5]: 5.2 ± 1.6 BU
ME increases [6]: 8%
change of H values (became more pleasant) [6]: 1%
DT, detection threshold [7]: 7.1 ± 0.3^b BU
H, hedonic estimation [7]: 3 ± 2^ %
ME, magnitude estimation [7]: 18 ± 2^c %
RT, recognition threshold [7]: 9.3 ± 0.3^b BU
DT, detection threshold [8]: 10.1 ± 0.5^a BU
H, hedonic value [8]: 5 ± 3^a %
ME, magnitude estimation [8]: 7 ± 3^a %
RT, recognition threshold [8]: 11.2 ± 0.3^ BU
DT, detection threshold [9]: 6.1 ± 0.4^a BU
H, hedonic value [9]: 0.3 ± 2.8^ %
ME, magnitude estimation [9]: 21 ± 3^ %
RT, recognition threshold [9]: 8.8 ± 0.4^a BU
DT, detection threshold [10]: 2 BU
H, hedonic value [10]: 75%
ME, magnitude estimation [10]: 75%
RT, recognition threshold [10]: 3 BU
DT, detection threshold [11]: 7.8 ± 0.3^a BU
H, hedonic estimation [11]: 4 ± 1^ %
ME, magnitude estimation [11]: 15 ± 2^c %
RT, recognition threshold [11]: 9.6 ± 0.2^a BU
DT, detection threshold [12]: 10.1 ± 0.3^a BU
H, hedonic value [12]: −0.4 ± 1^ %
ME, magnitude estimation [12]: 5 ± 2^a %
RT, recognition threshold [12]: 11.1 ± 0.2^ BU
DT, detection threshold [13]: 6.8 ± 0.3^a BU
H, hedonic value [13]: 7 ± 2^ %
ME, magnitude estimation [13]: 19 ± 2^ %
RT, recognition threshold [13]: 8.9 ± 0.3^a BU
DT, detection threshold [14]: 2.5 ± 1.0 BU
H, hedonic value [14]: 28 ± 19%
ME, magnitude estimation [14]: 31 ± 17%
RT, recognition threshold [14]: 4.8 ± 1.7 BU
DT, detection threshold [15]: 7.2 ± 0.8^ BU
H, hedonic estimation [15]: 8 ± 5^ %
ME, magnitude estimation [15]: 24 ± 2^a %
RT, recognition threshold [15]: 9.0 ± 0.5^b BU
DT, detection threshold [16]: 10.6 ± 0.5^ BU
H, hedonic value [16]: −1 ± 4^ %
ME, magnitude estimation [16]: 5 ± 3^a %
RT, recognition threshold [16]: 11.6 ± 0.4^ BU
DT, detection threshold [17]: 4.6 ± 0.7^a BU
H, hedonic value [17]: 13 ± 9^ %
ME, magnitude estimation [17]: 38 ± 6^c %
RT, recognition threshold [17]: 7.1 ± 0.6^a BU
increase of H values (more pleasant) [18]: 2%
increase of ME values [18]: 5%
DT, detection threshold [19]: 7.8 ± 0.2^d BU
H, hedonic estimation [19]: 6 ± 2^a %
ME, magnitude estimation [19]: 17 ± 2 ^ %
RT, recognition threshold [19]: 9.5 ± 0.2^a BU
DT, detection threshold [20]: 10.3 ± 0.3^a BU
H, hedonic value [20]: 4 ± 2^a %
ME, magnitude estimation [20]: 5 ± 2^a %
RT, recognition threshold [20]: 11.2 ± 0.2^d BU
DT, detection threshold [21]: 6.9 ± 0.3^a BU
H, hedonic value [21]: 7 ± 2^ %
ME, magnitude estimation [21]: 22 ± 2^ %
RT, recognition threshold [21]: 8.8 ± 0.3^ BU
DT, detection threshold [22]: 3.8 ± 0.7 BU
H, hedonic value [22]: 13 ± 12%
ME, magnitude estimation [22]: 33 ± 8%
RT, recognition threshold [22]: 5.0 ± 0.6 BU
ME increases [23]: 11%
change of H values (became more pleasant) [23]: 4%
DT, detection threshold [24]: 7.2 ± 0.3^c BU
H, hedonic estimation [24]: 8 ± 3^a %
ME, magnitude estimation [24]: 23 ± 2^a %
RT, recognition threshold [24]: 8.9 ± 0.3^b BU
DT, detection threshold [25]: 9.8 ± 0.5^a BU
H, hedonic value [25]: 3 ± 3^a %
ME, magnitude estimation [25]: 8 ± 3^a %
RT, recognition threshold [25]: 10.9 ± 0.4^e BU
DT, detection threshold [26]: 6.3 ± 0.4^a BU
H, hedonic value [26]: 11 ± 3^ %
ME, magnitude estimation [26]: 27 ± 3^a %
RT, recognition threshold [26]: 8.2 ± 0.4^a BU
DT, detection threshold [27]: 2.5 BU
H, hedonic value [27]: −62%
ME, magnitude estimation [27]: 79%
RT, recognition threshold [27]: 4.0 BU
DT, detection threshold [28]: 7.8 ± 0.3^a BU
H, hedonic estimation [28]: 8 ± 2^d %
ME, magnitude estimation [28]: 18 ± 2^d %
RT, recognition threshold [28]: 9.1 ± 0.2^c BU
DT, detection threshold [29]: 9.9 ± 0.4^c BU
H, hedonic value [29]: 2 ± 2^ %
ME, magnitude estimation [29]: 6 ± 2^a %
RT, recognition threshold [29]: 10.8 ± 0.3^ BU
DT, detection threshold [30]: 6.8 ± 0.3^a BU
H, hedonic value [30]: 11 ± 2^ %
ME, magnitude estimation [30]: 24 ± 2^ %
RT, recognition threshold [30]: 8.4 ± 0.3^ BU
DT, detection threshold [31]: 3.8 ± 0.9 BU
H, hedonic value [31]: 12 ± 16%
ME, magnitude estimation [31]: 33 ± 13%
RT, recognition threshold [31]: 4.5 ± 1.3 BU
DT, detection threshold [32]: 7.0 ± 0.8^d BU
H, hedonic estimation [32]: 13 ± 7 ^ %
ME, magnitude estimation [32]: 25 ± 6 ^ %
RT, recognition threshold [32]: 7.8 ± 0.8^d BU
DT, detection threshold [33]: 10.1 ± 0.8^ BU
H, hedonic value [33]: 2 ± 2^a %
ME, magnitude estimation [33]: 4 ± 3^a %
RT, recognition threshold [33]: 11.3 ± 0.7^ BU
DT, detection threshold [34]: 4.6 ± 0.9^a BU
H, hedonic value [34]: 22 ± 11^ %
ME, magnitude estimation [34]: 42 ± 8^b %
RT, recognition threshold [34]: 5.1 ± 0.9^a BU
total mean increase of ME for all odors (oral theophylline 200 mg): 5.1%
increase of H values for amyl acetate (oral theophylline 200 mg daily, not statistically significant): 50%
total mean increase of ME for all odors (oral theophylline 400 mg): 10.4%
decrease of H values for thiophene (oral theophylline 400 mg daily): 40%
increase of H values for nitrobenzene (oral theophylline 400 mg daily, not statistically significant): 50%
